Experimental data taken from the NIST ThermoML archive (doi:10.1007/s10765-005-5570-x).

Assay: xn = mol fraction of the nth substance listed
Settings: Liquid

ClCCCl [1,2-dichloroethane] + CCOC(C)=O
Settings	mass density [kg/m3]
288.15 K, 101.33 kPa, x1 = 0.1036	936.39
288.15 K, 101.33 kPa, x1 = 0.2054	966.98
288.15 K, 101.33 kPa, x1 = 0.3019	996.99
288.15 K, 101.33 kPa, x1 = 0.4003	1028.99
288.15 K, 101.33 kPa, x1 = 0.4963	1061.48
288.15 K, 101.33 kPa, x1 = 0.602	1098.83
288.15 K, 101.33 kPa, x1 = 0.682	1128.5
288.15 K, 101.33 kPa, x1 = 0.8002	1174.96
288.15 K, 101.33 kPa, x1 = 0.9001	1216.19
288.15 K, 101.33 kPa, x1 = 1	1260.13
298.15 K, 101.33 kPa, x1 = 0.1036	924.54
298.15 K, 101.33 kPa, x1 = 0.2054	954.82
298.15 K, 101.33 kPa, x1 = 0.3019	984.84
298.15 K, 101.33 kPa, x1 = 0.4003	1016.64
298.15 K, 101.33 kPa, x1 = 0.4963	1048.95
298.15 K, 101.33 kPa, x1 = 0.602	1086.09
298.15 K, 101.33 kPa, x1 = 0.682	1115.64
298.15 K, 101.33 kPa, x1 = 0.8002	1161.78
298.15 K, 101.33 kPa, x1 = 0.9001	1202.79
298.15 K, 101.33 kPa, x1 = 1	1246.59
298.15 K, 200 kPa, x1 = 0.2995	983.88
298.15 K, 200 kPa, x1 = 0.5013	1046.97
298.15 K, 200 kPa, x1 = 0.6994	1120.18
298.15 K, 500 kPa, x1 = 0.2995	984.27
298.15 K, 600 kPa, x1 = 0.5013	1047.36
298.15 K, 600 kPa, x1 = 0.6994	1120.72
298.15 K, 1100 kPa, x1 = 0.5013	1047.97
298.15 K, 1200 kPa, x1 = 0.2995	985.01
298.15 K, 1200 kPa, x1 = 0.6994	1121.21
298.15 K, 2100 kPa, x1 = 0.5013	1049.05
298.15 K, 2100 kPa, x1 = 0.6994	1122.19
298.15 K, 2300 kPa, x1 = 0.2995	986.02
298.15 K, 2900 kPa, x1 = 0.2995	986.78
298.15 K, 3000 kPa, x1 = 0.6994	1122.99
298.15 K, 3200 kPa, x1 = 0.5013	1050.04
298.15 K, 3900 kPa, x1 = 0.5013	1050.82
298.15 K, 4000 kPa, x1 = 0.2995	987.78
298.15 K, 4000 kPa, x1 = 0.6994	1124.04
298.15 K, 4800 kPa, x1 = 0.5013	1051.57
298.15 K, 4800 kPa, x1 = 0.6994	1124.91
298.15 K, 5000 kPa, x1 = 0.2995	988.82
298.15 K, 5900 kPa, x1 = 0.2995	989.64
298.15 K, 6100 kPa, x1 = 0.5013	1052.93
298.15 K, 6100 kPa, x1 = 0.6994	1126.11
298.15 K, 6900 kPa, x1 = 0.2995	990.62
298.15 K, 7000 kPa, x1 = 0.6994	1126.84
298.15 K, 7100 kPa, x1 = 0.5013	1053.82
298.15 K, 7800 kPa, x1 = 0.2995	991.51
298.15 K, 7800 kPa, x1 = 0.5013	1054.57
298.15 K, 8000 kPa, x1 = 0.6994	1127.94
298.15 K, 8600 kPa, x1 = 0.2995	992.31
298.15 K, 8800 kPa, x1 = 0.6994	1128.76
298.15 K, 9000 kPa, x1 = 0.5013	1055.76
298.15 K, 9800 kPa, x1 = 0.5013	1056.47
298.15 K, 9900 kPa, x1 = 0.2995	993.71
298.15 K, 9900 kPa, x1 = 0.6994	1129.84
298.15 K, 11700 kPa, x1 = 0.2995	995.34
298.15 K, 11900 kPa, x1 = 0.5013	1058.45
298.15 K, 12000 kPa, x1 = 0.6994	1131.77
298.15 K, 13700 kPa, x1 = 0.6994	1133.5
298.15 K, 13800 kPa, x1 = 0.2995	997.35
298.15 K, 13800 kPa, x1 = 0.5013	1060.29
298.15 K, 15600 kPa, x1 = 0.6994	1135.23
298.15 K, 15900 kPa, x1 = 0.2995	999.26
298.15 K, 15900 kPa, x1 = 0.5013	1062.3
298.15 K, 17700 kPa, x1 = 0.6994	1137.32
298.15 K, 17900 kPa, x1 = 0.2995	1001.14
298.15 K, 18000 kPa, x1 = 0.5013	1064.25
298.15 K, 19400 kPa, x1 = 0.2995	1002.51
298.15 K, 19600 kPa, x1 = 0.6994	1139.1
298.15 K, 19900 kPa, x1 = 0.5013	1065.99
308.15 K, 101.33 kPa, x1 = 0.1036	911.53
308.15 K, 101.33 kPa, x1 = 0.2054	941.7
308.15 K, 101.33 kPa, x1 = 0.3019	971.32
308.15 K, 101.33 kPa, x1 = 0.4003	1002.93
308.15 K, 101.33 kPa, x1 = 0.4963	1035.07
308.15 K, 101.33 kPa, x1 = 0.602	1071.98
308.15 K, 101.33 kPa, x1 = 0.682	1101.3
308.15 K, 101.33 kPa, x1 = 0.8002	1147.08
308.15 K, 101.33 kPa, x1 = 0.9001	1187.86
308.15 K, 101.33 kPa, x1 = 1	1231.27

ClCCBr [1-bromo-2-chloroethane] + CCOC(C)=O
Settings	mass density [kg/m3]
288.15 K, 101.33 kPa, x1 = 0.108	984.97
288.15 K, 101.33 kPa, x1 = 0.1985	1051.71
288.15 K, 101.33 kPa, x1 = 0.2997	1128.56
288.15 K, 101.33 kPa, x1 = 0.3988	1205.99
288.15 K, 101.33 kPa, x1 = 0.5008	1288.67
288.15 K, 101.33 kPa, x1 = 0.5477	1327.76
288.15 K, 101.33 kPa, x1 = 0.6462	1412.26
288.15 K, 101.33 kPa, x1 = 0.7653	1518.63
288.15 K, 101.33 kPa, x1 = 0.803	1553.45
288.15 K, 101.33 kPa, x1 = 0.905	1650.02
288.15 K, 101.33 kPa, x1 = 1	1744.36
298.15 K, 101.33 kPa, x1 = 0.108	972.55
298.15 K, 101.33 kPa, x1 = 0.1985	1039.06
298.15 K, 101.33 kPa, x1 = 0.2997	1115.49
298.15 K, 101.33 kPa, x1 = 0.3988	1192.41
298.15 K, 101.33 kPa, x1 = 0.5008	1274.57
298.15 K, 101.33 kPa, x1 = 0.5477	1313.32
298.15 K, 101.33 kPa, x1 = 0.6462	1397.28
298.15 K, 101.33 kPa, x1 = 0.7653	1503.13
298.15 K, 101.33 kPa, x1 = 0.803	1537.71
298.15 K, 101.33 kPa, x1 = 0.905	1634.03
298.15 K, 101.33 kPa, x1 = 1	1727.88
298.15 K, 200 kPa, x1 = 0.2995	1115.91
298.15 K, 200 kPa, x1 = 0.5013	1278.27
298.15 K, 200 kPa, x1 = 0.6994	1442.43
298.15 K, 500 kPa, x1 = 0.2995	1116.35
298.15 K, 600 kPa, x1 = 0.6994	1443.12
298.15 K, 700 kPa, x1 = 0.5013	1278.85
298.15 K, 1100 kPa, x1 = 0.6994	1443.6
298.15 K, 1200 kPa, x1 = 0.2995	1117.05
298.15 K, 1200 kPa, x1 = 0.5013	1279.48
298.15 K, 2100 kPa, x1 = 0.2995	1118.11
298.15 K, 2100 kPa, x1 = 0.5013	1280.34
298.15 K, 2100 kPa, x1 = 0.6994	1444.65
298.15 K, 2900 kPa, x1 = 0.6994	1445.74
298.15 K, 3000 kPa, x1 = 0.2995	1119.13
298.15 K, 3000 kPa, x1 = 0.5013	1281.5
298.15 K, 4000 kPa, x1 = 0.2995	1120.19
298.15 K, 4000 kPa, x1 = 0.5013	1282.56
298.15 K, 4100 kPa, x1 = 0.6994	1447.07
298.15 K, 5000 kPa, x1 = 0.2995	1121.32
298.15 K, 5000 kPa, x1 = 0.5013	1283.71
298.15 K, 5100 kPa, x1 = 0.6994	1448.15
298.15 K, 5800 kPa, x1 = 0.2995	1122.17
298.15 K, 5800 kPa, x1 = 0.6994	1448.98
298.15 K, 5900 kPa, x1 = 0.5013	1284.8
298.15 K, 7000 kPa, x1 = 0.5013	1285.84
298.15 K, 7000 kPa, x1 = 0.6994	1450.32
298.15 K, 7100 kPa, x1 = 0.2995	1123.21
298.15 K, 7700 kPa, x1 = 0.6994	1451.09
298.15 K, 7900 kPa, x1 = 0.2995	1124.37
298.15 K, 8000 kPa, x1 = 0.5013	1286.92
298.15 K, 8600 kPa, x1 = 0.2995	1125.17
298.15 K, 8700 kPa, x1 = 0.5013	1287.86
298.15 K, 8800 kPa, x1 = 0.6994	1452.5
298.15 K, 10100 kPa, x1 = 0.2995	1126.71
298.15 K, 10100 kPa, x1 = 0.5013	1289.28
298.15 K, 10300 kPa, x1 = 0.6994	1454.22
298.15 K, 11700 kPa, x1 = 0.2995	1128.38
298.15 K, 12000 kPa, x1 = 0.5013	1291.48
298.15 K, 12000 kPa, x1 = 0.6994	1456.29
298.15 K, 13700 kPa, x1 = 0.5013	1293.44
298.15 K, 13800 kPa, x1 = 0.2995	1130.67
298.15 K, 14000 kPa, x1 = 0.6994	1458.57
298.15 K, 15500 kPa, x1 = 0.5013	1295.42
298.15 K, 15900 kPa, x1 = 0.2995	1132.71
298.15 K, 15900 kPa, x1 = 0.6994	1460.86
298.15 K, 17400 kPa, x1 = 0.6994	1462.58
298.15 K, 17700 kPa, x1 = 0.2995	1134.48
298.15 K, 17900 kPa, x1 = 0.5013	1298.2
298.15 K, 19200 kPa, x1 = 0.6994	1464.86
298.15 K, 19700 kPa, x1 = 0.2995	1136.76
298.15 K, 19800 kPa, x1 = 0.5013	1300.25
308.15 K, 101.33 kPa, x1 = 0.108	959.03
308.15 K, 101.33 kPa, x1 = 0.1985	1024.94
308.15 K, 101.33 kPa, x1 = 0.2997	1100.59
308.15 K, 101.33 kPa, x1 = 0.3988	1177.02
308.15 K, 101.33 kPa, x1 = 0.5008	1258.55
308.15 K, 101.33 kPa, x1 = 0.5477	1296.96
308.15 K, 101.33 kPa, x1 = 0.6462	1380.36
308.15 K, 101.33 kPa, x1 = 0.7653	1485.56
308.15 K, 101.33 kPa, x1 = 0.803	1519.81
308.15 K, 101.33 kPa, x1 = 0.905	1615.55
308.15 K, 101.33 kPa, x1 = 1	1708.86
